Test results published in patent publication US20240287164A1, “ANTIBODIES SPECIFIC TO NELL2 AND METHODS OF USE” (BOARD OF REGENTS, THE UNIVERSITY OF TEXAS SYSTEM, priority 2021, published 2024).
Entries after “also recorded” stand apart in the source; their conditions may differ. Where a SMILES comes first, the peptide text is derived from it. The star is where a group is joined. Cbz = O=C(OCc1ccccc1)*

Legend:
BAF complexes = test: BAF subunit protein levels by immunoblotting in Ewing sarcoma cells; format: cell-based, human
Description: Immunoblotting. […] The following antibodies were used: rabbit polyclonal anti-FLI1 (ab15289, Abcam); mouse monoclonal anti-FLAG M2 (F1804, MilliporeSigma): rabbit monoclonal anti-NELL2 (ab181376, Abcam); goat polyclonal anti-PGK1 (sc-17943, Santa Cruz Biotechnology); rabbit polyclonal anti-Robo3 (LS-C345713, LSBio); goat polyclonal anti-Robo3 (PA5-18714, Thermo Fisher Scientific); mouse monoclonal anti-cdc42 (ACD03, Cytoskeleton); rabbit polyclonal anti-Rac1/2/3 (2465, Cell Signaling Technologies); rabbit polyclonal anti-Rho A (2117, Cell Signaling Technologies); goat polyclonal anti-BRG1 (A303-877A, Bethyl Laboratories); rabbit monoclonal anti-BRG1 (49360, Cell Signaling Technologies); rabbit polyclonal anti-BRM (A301-014A-T, Bethyl Laboratories); mouse monoclonal anti-ARID1A/BAF250) (sc-32761, Santa Cruz Biotechnology); rabbit polyclonal anti-BAF170 (A301-039A-T, Bethyl Laboratories); rabbit monoclonal anti-BAF155 (11956, Cell Signaling Technologies); rabbit polyclonal anti-BAF60B (A301-596A-T, Bethyl Laboratories); rabbit polyclonal anti-BAF57 (A300-810A-T, Bethyl Laboratories); rabbit polyclonal anti-BAF53A (A301-391A-T, Bethyl Laboratories); rabbit monoclonal anti-BAF47 (8745, Cell Signaling Technologies); rabbit polyclonal anti-BRD9 (A303-781A-T, Bethyl Laboratories); rabbit monoclonal anti-SS18 (21792, Cell Signaling Technologies); rabbit monoclonal anti-CD133 (64326, Cell Signaling Technologies); rabbit polyclonal anti-srGAP1 (A301-286A-T, Bethyl Laboratories); rabbit polyclonal anti-srGAP2 (GTX130797, GeneTex); mouse monoclonal anti-tubulin (DMIA, Thermo Fisher Scientific); rabbit polyclonal anti-β-actin (4967, Cell Signaling Technologies); mouse monoclonal anti-Rpb1 (2629, Cell Signaling Technologies); rabbit monoclonal anti-cdc6 (3387, Cell Signaling Technologies); rabbit monoclonal anti-caveolin-1 (3267, Cell Signaling Technologies); rabbit polyclonal anti-phospho-caveolin-1 (3251, Cell Signaling Technologies); rabbit monoclonal anti-Src (2123, Cell Signaling Technologies); rabbit monoclonal anti-phospho-Src Family (6943, Cell Signaling Technologies); and rabbit polyclonal anti-GDF6 (NBP1-91934, Novus Biologicals). The following HRP-conjugated secondary antibodies were used: goat anti-rabbit (7074) and goat anti-mouse (7076) (Cell Signaling Technologies); donkey anti-goat (A50)-201P, Bethyl Laboratories).

CD133^low population [1] = test: Chemotherapeutic drug treatment of CD133high and CD133low populations; format: cell-based, human; settings: for CD133low population after prolonged treatment: FIG. 4M
Description: Flow cytometry. Cells were trypsinized, washed with FACS wash buffer (PBS, 0.5% BSA, 2 mM EDTA), and incubated with PE-conjugated human CD133/1 antibody (clone AC133, Miltenyi Biotec; 1:100 in FACS wash buffer) for 20 minutes at 4° C. Cells were washed three times with FACS wash buffer and the CD133^high and CD133^low cell populations were sorted by using BD FACSAria (Becton Dickinson). The FACSDiva 6.1.3 software (Becton Dickinson) was used for sample analysis.

Rac. Ras, or Rab = settings: Surviladze et al. 2010; cited from earlier work
CD133^low population [2] = test: Proliferation of sorted CD133low population (IncuCyte); format: cell-based, human; settings: CD133^low population treated with ML141
Description: (§1) Cell proliferation and xenograft tumorigenicity assays. Anchorage-dependent cell proliferation was assessed by IncuCyte live-cell imaging system (Essen BioScience). The IncuCyte system monitors cell proliferation by analyzing the occupied area (% confluence) of cell images over time. At least four fields from four wells were assayed for each experimental condition. The cell seeding density was 2000 cells per well in a 96-well plate. For each assay, biological replicates were performed to confirm the reproducibility of results. Anchorage-independent cell proliferation was evaluated by soft agar colony formation assays. A-673 cells were infected with lentiviruses expressing shRNAs against NELL2 or scrambled shRNA and were selected with 2 μg/ml puromycin. Four days after infection, 4×10^3 cells were plated in soft agar. The soft agar cultures were composed of two layers; a base layer [4 ml in a 60-mm dish; DMEM/10% fetal bovine serum/0.6% noble agar (A5431, MilliporeSigma)/penicillin/streptomycin] and a cell layer (2 ml in a 60-mm dish; DMEM/10% fetal bovine serum/0.3% noble agar/penicillin/streptomycin). Colonies were grown for three weeks and counted. Colonies (>50 cells) were scored by randomly counting 10 fields per dish. Sphere formation assays were done (Dasgupta, A., et al. (2017) Oncotarget 8, 77292-77308) using ultra-low attachment 6-well plates (Corning: seeding density 1×10^4 cells/well) and DMEM/F-12 medium supplemented with B27, human recombinant epidermal growth factor (20 ng/ml), and basic fibroblast growth factor (20 ng/ml). For xenograft tumorigenicity assays, cells were subcutaneously injected into the flanks of SCID mice (2×10^6 cells/injection, five mice/group). Tumor growth was monitored weekly using a caliper. While it is not possible to predict the effect size, the sample size of five mice per group was chosen based on experience with xenograft experiments. Mice were randomly allocated to treatment groups. Blinding of the researcher measuring tumor size was employed.
Flow cytometry. […]

A-673 and EW8 cells = test: Proliferation of NELL2- or Robo3-silenced Ewing sarcoma cells (IncuCyte); format: cell-based, human; settings: 5 μM ML141; A-673 and EW8 cells; FIG. 3E
Description: Transfection and viral infection. Calcium phosphate co-precipitation was used for transfection of 293T cells. Lentiviruses were prepared by transfection in 293T cells following System Biosciences' protocol, and the cells infected with lentiviruses were selected with 2 μg/mL puromycin for 48 hours. The target sequences for shRNAs are as follows: FLI1 C-terminus shRNA, […] (SEQ ID NO: 20); luciferase shRNA, […] (SEQ ID NO: 21); NELL2 shRNA-1, […] (SEQ ID NO: 22); and NELL2 shRNA-2, […] (SEQ ID NO: 23). The following siRNAs were used: human NELL2 siRNA SMARTpool (M-012185-00); Dharmacon), human Robo3 siRNA SMARTpool (M-026504-00; Dharmacon), human Robo3 siRNAs NM_022370 (SASI_Hs01_00099511, SASI_Hs01_00099512, SASI_Hs01_00099513, SASI_Hs01_00099514, SASI_Hs01_00099515 and SASI_Hs01_00099516; MilliporeSigma), human cdc42 siRNA SMARTpool (M-005057-01; Dharmacon), human CD133 siRNA SMARTpool (M-010630-01; Dharmacon), human srGAP1 siRNA SMARTpool (M-026974-00; Dharmacon), srGAP2 siRNA SMARTpool (M-021531-03; Dharmacon), human caveolin-1 siRNA SMARTpool (M-003467-01; Dharmacon), human GDF6 siRNA SMARTpool (M-0330055-01; Dharmacon), and Non-Targeting siRNA Pool #2 (D-0012Jun. 14, 2005; Dharmacon), siRNA transfection of cell lines was performed using Lipofectamine™ RNAiMAX Transfection Reagent (Thermo Fisher).
Cell proliferation and xenograft tumorigenicity assays. Anchorage-dependent cell proliferation was assessed by IncuCyte live-cell imaging system (Essen BioScience). The IncuCyte system monitors cell proliferation by analyzing the occupied area (% confluence) of cell images over time. At least four fields from four wells were assayed for each experimental condition. The cell seeding density was 2000 cells per well in a 96-well plate. […] Anchorage-independent cell proliferation was evaluated by soft agar colony formation assays. […] Colonies were grown for three weeks and counted. Colonies (>50 cells) were scored by randomly counting 10 fields per dish. […] Tumor growth was monitored weekly using a caliper. […]

Robo3 = target: T1, Robo3 (Homo sapiens, UniProt Q96MS0); test: NELL2-FLAG ligand-binding assay in A-673 cells; settings: FIG. 2B
T1 construct: endogenous in cells; host or cells: A-673 Ewing sarcoma cells
T1 sequence (Q96MS0 21-1386): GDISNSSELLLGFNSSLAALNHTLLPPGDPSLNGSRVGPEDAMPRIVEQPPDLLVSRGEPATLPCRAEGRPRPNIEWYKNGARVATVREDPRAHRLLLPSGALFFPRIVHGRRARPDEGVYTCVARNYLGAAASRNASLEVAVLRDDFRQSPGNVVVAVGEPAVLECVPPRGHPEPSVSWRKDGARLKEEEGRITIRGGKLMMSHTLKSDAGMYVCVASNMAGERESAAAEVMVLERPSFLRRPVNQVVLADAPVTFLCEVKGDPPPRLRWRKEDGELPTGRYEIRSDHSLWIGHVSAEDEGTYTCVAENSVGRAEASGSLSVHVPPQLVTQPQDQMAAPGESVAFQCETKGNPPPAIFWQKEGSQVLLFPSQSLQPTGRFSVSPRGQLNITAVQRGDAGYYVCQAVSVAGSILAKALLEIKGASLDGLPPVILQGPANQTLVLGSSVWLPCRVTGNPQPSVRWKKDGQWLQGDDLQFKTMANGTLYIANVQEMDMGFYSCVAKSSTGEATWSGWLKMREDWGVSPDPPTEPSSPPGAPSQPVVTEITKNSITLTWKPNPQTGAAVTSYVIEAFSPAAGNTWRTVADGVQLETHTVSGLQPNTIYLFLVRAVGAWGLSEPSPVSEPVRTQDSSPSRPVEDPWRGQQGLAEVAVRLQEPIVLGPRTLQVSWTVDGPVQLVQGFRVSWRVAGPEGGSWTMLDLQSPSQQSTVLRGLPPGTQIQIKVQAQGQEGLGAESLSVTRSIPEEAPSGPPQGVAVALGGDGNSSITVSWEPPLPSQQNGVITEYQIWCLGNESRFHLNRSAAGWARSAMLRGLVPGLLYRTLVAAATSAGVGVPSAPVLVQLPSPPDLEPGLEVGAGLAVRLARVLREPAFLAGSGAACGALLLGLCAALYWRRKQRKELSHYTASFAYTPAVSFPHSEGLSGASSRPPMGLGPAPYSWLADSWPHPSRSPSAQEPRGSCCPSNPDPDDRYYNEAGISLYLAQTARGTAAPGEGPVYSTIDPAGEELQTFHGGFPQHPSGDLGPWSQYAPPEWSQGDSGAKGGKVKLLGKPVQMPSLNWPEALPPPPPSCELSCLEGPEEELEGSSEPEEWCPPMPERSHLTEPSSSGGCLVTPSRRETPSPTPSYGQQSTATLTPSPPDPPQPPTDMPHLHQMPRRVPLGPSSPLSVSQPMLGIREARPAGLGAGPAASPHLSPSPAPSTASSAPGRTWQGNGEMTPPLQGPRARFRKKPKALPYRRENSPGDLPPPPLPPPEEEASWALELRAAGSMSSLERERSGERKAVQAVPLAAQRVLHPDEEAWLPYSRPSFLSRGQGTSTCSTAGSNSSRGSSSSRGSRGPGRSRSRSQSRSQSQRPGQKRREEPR
Description: Robo3 expression was readily detectable in Ewing sarcoma tumors and cell lines, but undetectable in mesenchymal stem cells (FIG. 2A). The role of Robo3 as the NELL2 receptor in Ewing sarcoma was tested using ligand-binding assays (FIG. 2B). C-terminally FLAG-tagged NELL2 was produced from transfected 293T/HEK293T cells and was incubated with A-673 cells that were transfected with Robo3 siRNA pool or control siRNA pool. After washing the cells to remove unbound NELL2-FLAG, a whole cell lysate was prepared and analyzed by immunoblotting to assess the binding of NELL2-FLAG to A-673 cells. […] The specificity of the NELL2-Robo3 interaction was further confirmed by ligand-binding assays using alkaline phosphatase-fused NELL2 (NELL2-AP) (FIG. 2C). NELL2-AP bound to COS cells expressing Robo3, but not Robo1 or vector (FIG. 2C).

A673 Ewing sarcoma cells = test: Growth inhibition screen of anti-NELL2 hybridoma clones / mAbs on Ewing sarcoma cell proliferation; format: cell-based, human; settings: mAbs used at 1 μg/ml, FIG. 6
Description: as §1, with “Sphere formation assays were done (Dasgupta, A., et al. (2017) Oncotarget 8, 77292-77308) using ultra-low attachment 6-well plates (Corning: seeding density 1×10^4 cells/well) and DMEM/F-12 medium supplemented with B27, human recombinant epidermal growth factor (20 ng/ml), and basic fibroblast growth factor (20 ng/ml). For xenograft tumorigenicity assays, cells were subcutaneously injected into the flanks of SCID mice (2×10^6 cells/injection, five mice/group).” left out, “While it is not possible to predict the effect size, the sample size of five mice per group was chosen based on experience with xenograft experiments. Mice were randomly allocated to treatment groups. Blinding of the researcher measuring tumor size was employed.” left out

[3] = target: T2, NELL2 EGF-like repeats (residue 397-637) (Homo sapiens (Human), UniProt Q99435 397-637); test: immunogen ELISA of hybridoma clones
T2 construct: also called EGF-like repeat domain of NELL2; immunogen
T2 sequence (Q99435 397-637 limits assumed): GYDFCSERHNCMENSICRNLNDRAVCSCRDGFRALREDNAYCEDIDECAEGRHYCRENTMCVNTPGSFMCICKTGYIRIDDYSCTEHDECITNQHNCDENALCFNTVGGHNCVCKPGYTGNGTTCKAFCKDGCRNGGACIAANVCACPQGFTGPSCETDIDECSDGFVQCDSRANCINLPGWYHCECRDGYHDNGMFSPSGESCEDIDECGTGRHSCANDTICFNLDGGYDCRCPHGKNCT

CC(C)C[C@@H](C=O)NC(=O)[C@H](CC(C)C)NC(=O)[C@H](CC(C)C)NC(=O)OCc1ccccc1 [MG-132, reference compound] (Cbz-Leu-Leu-Leu-aldehyde)
Protein levels of BRG1, BAF250A, BAF155, and BAF47 reduced by CN04, effect of proteasome inhibitor (BAF complexes; CN04 treatment plus MG-132): restored

N.N.[Cl][Pt][Cl] [cisplatin]
Resistance of CD133low versus CD133high population to the drug (CD133^low population [1]): more resistant | CD133low population after prolonged treatment (CD133^low population [1]): enriched the CD133^low population

COc1cccc2c1C(=O)c1c(O)c3c(c(O)c1C2=O)C[C@@](O)(C(=O)CO)C[C@@H]3O[C@H]1C[C@H](N)[C@H](O)[C@H](C)O1 [doxorubicin]
Resistance of CD133low versus CD133high population to the drug (CD133^low population [1]): more resistant | CD133low population after prolonged treatment (CD133^low population [1]): enriched the CD133^low population

ML141 [reference compound]
BRG1, BAF155, and BAF47 protein levels in CD133low population (BAF complexes; CD133^low population treated with ML141): increased BRG1, BAF155, and BAF47 protein levels | Reduction of BRG1, BAF250A, BAF155, and BAF47 by NELL2 silencing, effect of cdc42 inhibitor (BAF complexes; Ewing sarcoma cells, NELL2 silencing): abolished this response | Inhibition of Rac, Ras, or Rab (Rac. Ras, or Rab): does not inhibit | Cell proliferation of CD133low population (CD133^low population [2]): increased cell proliferation | Proliferation inhibition by NELL2 silencing or Robo3 silencing, effect of cdc42 inhibitor (A-673 and EW8 cells): abrogates the proliferation inhibition; also recorded: abolished

NELL2-FLAG: C-terminally FLAG-tagged NELL2 produced from transfected 293T/HEK293T cells
Binding to control siRNA transfected A-673 cells (Robo3): bound | Binding to Robo3-silenced A-673 cells (Robo3; Robo3 siRNA pool): abolished

B1: anti-NELL2 mouse monoclonal antibody clone #17 (antibody, V domains shown)
VH: DVQLVESGGGLVQPGGSRKLSCAASGFTFSSFGMHWVRQAPEKGLEWVAYVSGGSSTIYYADTVKGRFTISRDNPKNTLFLQMTSLRSEDTAMYYCARSFSLLRLPVYFDFWGQGTTLTVSS
VL: DIQMTQSPSSLSASLGERVSLTCRASQEISDYLTWLQQKPDGTIKRLIYAASTLDSGVPKRFSGSRSGSDYSLTISSLESEDFADYYCLQYASFPLTFGAGTKLELK
notes: Mouse hybridoma mAb; also called NELL2 mAb
Ewing sarcoma cell proliferation (A673 Ewing sarcoma cells): strongly inhibited | binding result [3]: binds

B2: anti-NELL2 mouse monoclonal antibody clone #15 (antibody, V domains shown)
VH: EVKLVESGGGLVQPGGSLKLSCATSGFTFSDYYLYWVRQTPEKRLEWVAYISNGGDITYYPDTVKGRFAISRDNAKNTLYLQMSRLKSEDTAMYYCARGRVRSYYGNPDAMDFWGQGTSVTVSS
VL: DVVMTQTPLSLPVSLGDQASISCRSSQSLVHSNGNTYLHWYLQKPGQSPKLLIYKVSKRFSGVPDRFSGSGSGTDFTLKITRVEAEDLGVYFCSQSIYVPHTFGGGTKLEIK
notes: as for B1
Ewing sarcoma cell proliferation (A673 Ewing sarcoma cells): strongly inhibited | binding result [3]: binds
